Data as given in patent publication US12053451B2, “Arginase inhibitors and their therapeutic applications” (OncoArendi Therapeutics S.A., priority 2016, dated 2024).
Where a name gives a salt, the structure may show the parent alone.

What was measured:
[1] = target: T1, intracellular arginase in macrophages isolated from murine bone marrow (BMDM) (Mus musculus, UniProt Q61176); test: Cell-based assay: intracellular arginase in bone marrow derived macrophages (BMDM), urea level; parameters: species or system Balb/c mice; settings: murine BMDM with M-CSF and IL-4, urea measured 24 hours after compound; * = most potent diastereoisomer or mixture of diastereoisomers; read-out: Activity Class (BMDM)
T1 construct: endogenous in cells; host or cells: primary bone marrow derived macrophages from Balb/c mice, M-CSF and IL-4 treated
T1 sequence (Q61176 1-323): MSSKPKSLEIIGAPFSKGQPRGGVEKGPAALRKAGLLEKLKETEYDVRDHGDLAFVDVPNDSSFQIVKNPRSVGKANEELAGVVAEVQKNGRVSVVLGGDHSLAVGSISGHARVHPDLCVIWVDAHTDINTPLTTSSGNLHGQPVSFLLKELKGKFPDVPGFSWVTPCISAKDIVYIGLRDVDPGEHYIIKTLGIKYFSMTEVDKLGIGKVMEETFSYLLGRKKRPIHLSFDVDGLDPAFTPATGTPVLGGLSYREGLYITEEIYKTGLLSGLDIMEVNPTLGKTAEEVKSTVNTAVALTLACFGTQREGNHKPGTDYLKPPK

[2] = target: T2, recombinant human arginase 1 (Homo sapiens, UniProt P05089); test: Human arginase activity assay (urea measurement), arginase 1; format: biochemical; settings: recombinant human arginase 1, pH 7.4, 37° C., 60 min; * = value for the most potent diastereoisomer or the mixture of diastereoisomers; read-out: Activity Class (ARG I)
T2 construct: purchased Biolegend 552502
T2 sequence (P05089 1-322): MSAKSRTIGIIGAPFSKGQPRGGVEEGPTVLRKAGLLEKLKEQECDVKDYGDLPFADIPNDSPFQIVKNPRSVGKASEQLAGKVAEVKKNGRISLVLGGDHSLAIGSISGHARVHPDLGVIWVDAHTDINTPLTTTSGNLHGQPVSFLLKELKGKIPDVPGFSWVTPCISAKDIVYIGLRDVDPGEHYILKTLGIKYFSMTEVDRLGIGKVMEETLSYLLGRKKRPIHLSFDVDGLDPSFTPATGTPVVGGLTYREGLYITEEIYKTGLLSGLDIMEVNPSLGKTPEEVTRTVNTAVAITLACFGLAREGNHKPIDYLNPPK
How it was run: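 Arginase activity was measured as urea formed from L-arginine over 60 min at 37 °C. Reaction stopped with oPA/NED acidic reagent and absorbance read at 530 nm after 20 min colour development. Values were background-subtracted and normalised to no-compound activity, and IC50 was derived from percent-inhibition concentration-response regression.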

[3] = target: T3, recombinant human arginase 2 (Homo sapiens, UniProt P78540); test: Human arginase activity assay (urea measurement), arginase 2; format: biochemical; settings: for selected examples class estimated from % of inhibition at 1 μM and 100 μM, * = most potent diastereoisomer or mixture of diastereoisomers, read-out: Activity Class (ARG II)
T3 construct: made in house; host or cells: CHO
T3 sequence (P78540 23-354): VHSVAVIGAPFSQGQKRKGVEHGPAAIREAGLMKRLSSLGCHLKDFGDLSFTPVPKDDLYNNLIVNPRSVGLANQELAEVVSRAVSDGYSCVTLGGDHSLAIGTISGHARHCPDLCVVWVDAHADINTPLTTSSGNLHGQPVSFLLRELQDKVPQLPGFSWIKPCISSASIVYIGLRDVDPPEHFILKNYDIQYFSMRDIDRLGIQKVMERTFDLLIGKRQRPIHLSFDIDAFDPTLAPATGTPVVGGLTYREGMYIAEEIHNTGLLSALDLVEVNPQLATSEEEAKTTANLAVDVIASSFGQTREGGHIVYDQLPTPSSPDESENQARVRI
How it was run: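 Recombinant CHO-expressed human arginase 2 converted 20 mM L-arginine with 150 μM MnCl2 in phosphate buffer pH 7.4 for 60 min at 37 °C. Urea was measured colorimetrically at 530 nm after background subtraction, and IC50 fitted. Some compounds were classed by % inhibition at 1 μM and 100 μM.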

Row | IC50 [1] [nM] | IC50 [2] [nM] | IC50 [3] [nM] | Structure (SMILES)
1 | 10000 to 100000 | 100 to 1000 | 1000 to 10000 | NC[C@@H]1C[C@@H](CCB(O)O)CC(N)(C(=O)O)C1 (mixture of isomers) [Example 54, rac-(3R,5R)-1-amino-3-(aminomethyl)-5-(2-boronoethyl)cyclohexanecarboxylic acid dihydrochloride]
2 | 1000 to 10000 | 100 to 1000 | 1000 to 10000 | N[C@@H](CCCCB(O)O)C(=O)O [Comparative example 1, reference compound]
3 | 1 to 100 | 1 to 100 | 100 to 1000 | N[C@]1(C(=O)O)C[C@H](CCB(O)O)CC[C@H]1CN1CCCCC1 (racemic) [Example 31, rac-(1R,2S,5R)-1-amino-5-(2-boronoethyl)-2-(piperidin-1-ylmethyl)cyclohexanecarboxylic acid dihydrochloride]
